US8912184B1, “Therapeutic and diagnostic methods” (Alzheimer's Institute of America, Inc., priority 2010, dated 2014)
Where two headings read alike, the source gives them in different places.

Experiments:
[1] = tested on: HCT116 cells; experiment: ATP measured in cellular lysates (ATP depletion) of HCT116 cells; type: cell-based; settings: Homo sapiens, read-out: potency (IC50) for ATP depletion
Procedure: NAD in cells was measured by modification of existing protocols (Lee, H. I., et al. Exp. Mol. Med. 40, 246-253 (2008)). MCF-10A cells stably transduced with the PIK3CA(H1047R) oncogene were seeded in 96 well plates at very high density (100% confluence) and allowed to settle overnight. Test compound dissolved in DMSO was added and drug incubation proceeded for 20-24 hours. Cells were washed with PBS and harvested by incubation in 25 μL 0.5 M perchloric acid (HClO4) followed by vigorous shaking at 4° C. for 15 minutes. Acidic cell lysates were neutralized by adding 8 μL of 2 M KOH/0.2 M K2HPO4. The entire lysate volume was transferred to a centrifuge plate and spun at 3000 rpm in a table top centrifuge (4° C.) for 5 minutes to clear the precipitate. […] Reactions were allowed to proceed for 1 hour at room temperature, after which time fluorescence was read on a Gemini plate reader as described above.
For ATP measurement, 5 μL of cleared lysate was added to 195 μL PBS. 50 μL CellTiter-Glo reagent (Promega Corporation, Madison, Wis.) was added and ATP measured as described in the cytotoxicity assay methods.
Kinetics of NAD and ATP depletion in Naprt1-proficient HCT116 cells induced by Exemplary Compound A was studied using the assays described above. HCT116 cells were treated with 8.5 nM Exemplary Compound A and cellular NAD and ATP were measured at various times. […]

[2] = tested on: HCT116 xenograft tumors; experiment: NAD levels in tumor lysates of HCT116 xenograft mice; type: in vivo; settings: single oral dose on day 0, after two days
Procedure: Exemplary Compound A was tested for its ability to deplete NAD levels and promote tumor regression in an HCT116 (i.e., a Naprt-proficient cancer) murine xenograft model. Three million HCT116 human colon carcinoma cells were injected subcutaneously into nu/nu mice to form tumors. Dosing was started ten days later when median tumor volume was >100 mm^3.
Exemplary Compound A was administered orally once on day 0 (arrow) to HCT116 tumor-bearing xenograft mice and NAD levels were determined for tumor lysates every other day for 8 days.

**Q.** How did the IC50 ([1]; HCT-116, 0.5 h, exposure 30 min) turn out when O=C(NCc1cccnc1)Nc1ccc(COc2ccccc2-c2ccccc2)cc1 [Exemplary Compound A, 1-{4-[(biphenyl-2-yloxy)methyl]phenyl}-3-(pyridin-3-ylmethyl)urea] was run?
**A.** 33 nM

**Q.** What about the IC50 ([1]; HCT-116, after 48 h exposure) of the same molecule?
**A.** ~0.6 nM

**Q.** And the “depletion of NAD in tumor lysates” value [2]?
**A.** 94%
